Patent EP1025114B1, “3'-N-MODIFIED 6-O-SUBSTITUTED ERYTHROMYCIN KETOLIDE DERIVATIVES HAVING ANTIBACTERIAL ACTIVITY” (priority 1997, dated 1999)
In brackets after ≈: the same amount, converted by molar mass.

Tests used:
Experiment in all cases: In vitro antibacterial activity, agar dilution MIC
Type in all cases: cell-based
[1] = system: Staphylococcus aureus A5177; conditions: Staphylococcus aureus A5177 (organism code BB); BHI agar, 35-37 °C, 20 to 24 hours; unit assumed
In short: (§1)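 Test compound was serially diluted in Brain Heart Infusion agar across twelve plates, and each plate was spot-inoculated by replicator with 1:100 culture dilutions (1:10 for slow growers such as Streptococcus). MIC was the lowest concentration giving no growth, slight haze or sparsely isolated colonies relative to a drug-free growth control.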

Escherichia coli DC-2 = Escherichia coli DC-2 (organism code SS); BHI agar, 35-37 °C, 20 to 24 hours; unit assumed
In short: as §1

Escherichia coli SS = Escherichia coli SS (organism code RR); BHI agar, 35-37 °C, 20 to 24 hours; unit assumed
In short: as §1

[2] = system: Micrococcus luteus ATCC 4698; conditions: Micrococcus luteus ATCC 4698 (organism code PP); BHI agar, 35-37 °C, 20 to 24 hours; unit assumed
In short: as §1

[3] = system: Staphylococcus aureus NCTC10649M; conditions: Staphylococcus aureus NCTC10649M (organism code EE); BHI agar, 35-37 °C, 20 to 24 hours; unit assumed
In short: as §1

Candida albicans CCH 442 = Candida albicans CCH 442 (organism code TT); BHI agar, 35-37 °C, 20 to 24 hours; unit assumed
In short: as §1

[4] = system: Streptococcus pyogenes PIU 2548; conditions: Streptococcus pyogenes PIU 2548 (organism code NN); BHI agar, 35-37 °C, 20 to 24 hours; unit assumed
In short: as §1

[5] = system: Streptococcus Pheumoniae 5979; conditions: Streptococcus Pheumoniae 5979 (organism code ZZ); BHI agar, 35-37 °C, 20 to 24 hours; unit assumed
In short: as §1

[6] = system: Staphylococcus aureus ATCC 6538P; conditions: Staphylococcus aureus ATCC 6538P (organism code AA); BHI agar, 35-37 °C, 20 to 24 hours; unit assumed
In short: as §1

[7] = system: Streptococcus Pheumoniae ATCC6303; conditions: Streptococcus Pheumoniae ATCC6303 (organism code XX); BHI agar, 35-37 °C, 20 to 24 hours; unit assumed
In short: as §1

[8] = system: Staphylococcus aureus CMX 553; conditions: Staphylococcus aureus CMX 553 (organism code FF); BHI agar, 35-37 °C, 20 to 24 hours; unit assumed
In short: as §1

[9] = system: Streptococcus pyogenes 930; conditions: Streptococcus pyogenes 930 (organism code MM); BHI agar, 35-37 °C, 20 to 24 hours; unit assumed
In short: as §1

[10] = system: Mycobacterium smegmatis ATCC 114; conditions: Mycobacterium smegmatis ATCC 114 (organism code UU); BHI agar, 35-37 °C, 20 to 24 hours; unit assumed
In short: as §1

[11] = system: Micrococcus luteus ATCC 9341; conditions: Micrococcus luteus ATCC 9341 (organism code OO); BHI agar, 35-37 °C, 20 to 24 hours; unit assumed
In short: as §1

[12] = system: Nocardia Asteroides ATCC9970; conditions: Nocardia Asteroides ATCC9970 (organism code VV); BHI agar, 35-37 °C, 20 to 24 hours; unit assumed
In short: as §1

[13] = system: Streptococcus Pheumoniae 5649; conditions: Streptococcus Pheumoniae 5649 (organism code ZZA); BHI agar, 35-37 °C, 20 to 24 hours; unit assumed
In short: as §1

[14] = system: Staphylococcus aureus A-5278; conditions: Staphylococcus aureus A-5278 (organism code CC); BHI agar, 35-37 °C, 20 to 24 hours; unit assumed
In short: as §1

[15] = system: Staphylococcus epidermidis 3519; conditions: Staphylococcus epidermidis 3519 (organism code HH); BHI agar, 35-37 °C, 20 to 24 hours; unit assumed
In short: as §1

Escherichia coli JUHL = Escherichia coli JUHL (organism code QQ); BHI agar, 35-37 °C, 20 to 24 hours; unit assumed
In short: as §1

[16] = system: Haemophilis Influenzae DILL AMP R; conditions: Haemophilis Influenzae DILL AMP R (organism code WW); BHI agar, 35-37 °C, 20 to 24 hours; unit assumed
In short: as §1

[17] = system: Streptococcus agalactiae CMX 508; conditions: Streptococcus agalactiae CMX 508 (organism code KK); BHI agar, 35-37 °C, 20 to 24 hours; unit assumed
In short: as §1

[18] = system: Streptococcus bovis A-5169; conditions: Streptococcus bovis A-5169 (organism code JJ); BHI agar, 35-37 °C, 20 to 24 hours; unit assumed
In short: as §1

[19] = system: Enterococcus faecium ATCC 8043; conditions: Enterococcus faecium ATCC 8043 (organism code II); BHI agar, 35-37 °C, 20 to 24 hours; unit assumed
In short: as §1

[20] = system: Streptococcus pyogenes EES61; conditions: Streptococcus pyogenes EES61 (organism code LL); BHI agar, 35-37 °C, 20 to 24 hours; unit assumed
In short: as §1

[21] = system: Streptococcus Pheumoniae GYR 1171; conditions: Streptococcus Pheumoniae GYR 1171 (organism code YY); BHI agar, 35-37 °C, 20 to 24 hours; unit assumed
In short: as §1

[22] = system: Staphylococcus aureus CMX 642A; conditions: Staphylococcus aureus CMX 642A (organism code DD); BHI agar, 35-37 °C, 20 to 24 hours; unit assumed
In short: as §1

[23] = system: Staphylococcus aureus 1775; conditions: Staphylococcus aureus 1775 (organism code GG); BHI agar, 35-37 °C, 20 to 24 hours; unit assumed
In short: as §1

| Structure (SMILES) | MIC [1] [mg/L] | MIC (Escherichia coli DC-2) [mg/L] | MIC (Escherichia coli SS) [mg/L] | MIC [2] [mg/L] | MIC [3] [mg/L] | MIC (Candida albicans CCH 442) [mg/L] | MIC [4] [mg/L] | MIC [5] [mg/L] | MIC [6] [mg/L] | MIC [7] [mg/L] | MIC [8] [mg/L] | MIC [9] [mg/L] | MIC [10] [mg/L] | MIC [11] [mg/L] | MIC [12] [mg/L] | MIC [13] [mg/L] | MIC [14] [mg/L] | MIC [15] [mg/L] | MIC (Escherichia coli JUHL) [mg/L] | MIC [16] [mg/L] | other results |
| --- | --- | --- | --- | --- | --- | --- | --- | --- | --- | --- | --- | --- | --- | --- | --- | --- | --- | --- | --- | --- | --- |
| C=CCN(C)[C@H]1C[C@@H](C)O[C@@H](O[C@@H]2[C@@H](C)C(=O)[C@@H](C)C(=O)O[C@H](CC)[C@@]3(C)OC(=O)N[C@@H]3[C@@H](C)C(=O)[C@H](C)C[C@@]2(C)OCC=Cc2cnc3ccccc3c2)[C@@H]1O [Example 6, Compound of Formula (II); R is -CH2CH=CH-(3-quinolyl), R^p is H, W is absent, R^w is H, R^1 is CH2CH=CH2, R^2 is CH3] | 0.05 | 100 | 0.2 | 0.2 | 0.05 | > 100 | 0.2 | 16 | 0.05 | ≤ 0.004 | 0.05 | 3.1 | 0.2 | 0.02 | 0.1 | 0.25 | > 100 | 0.2 | 50 | 4 | MIC [17]: 0.05 mg/L; MIC [18]: 0.02 mg/L; MIC [19]: 0.05 mg/L; MIC [20]: 0.02 mg/L; MIC [21]: ≤ 0.004 mg/L; MIC [22]: 0.1 mg/L; MIC [23]: > 100 mg/L |
| CC[C@H]1OC(=O)[C@H](C)C(=O)[C@H](C)[C@@H](O[C@@H]2O[C@H](C)C[C@H](N(C)CCF)[C@H]2O)[C@](C)(OCC=Cc2cnc3ccccc3c2)C[C@@H](C)C(=O)[C@H](C)[C@H]2NC(=O)O[C@@]21C [Example 7, Compound of Formula (II); R is -CH2CH=CH-(3-quinolyl), R^p is H, W is absent, R^w is H, R^1 is CH2CH2F, R^2 is CH3] | 0.2 | > 100 | 0.39 | 0.39 | 0.1 | > 100 | 0.39 | 16 | 0.1 | 0.03 | 0.05 | 12.5 | 1.56 | 0.05 | 0.39 | 0.25 | > 100 | 0.2 | > 100 | 8 | MIC [17]: 0.05 mg/L; MIC [18]: 0.01 mg/L; MIC [19]: 0.05 mg/L; MIC [20]: 0.01 mg/L; MIC [21]: 0.03 mg/L; MIC [22]: 0.1 mg/L; MIC [23]: > 100 mg/L |
| CC[C@H]1OC(=O)[C@H](C)C(=O)[C@H](C)[C@@H](O[C@@H]2O[C@H](C)C[C@H](N(C)Cc3ccccc3)[C@H]2O)[C@](C)(OCC=Cc2cnc3ccccc3c2)C[C@@H](C)C(=O)[C@H](C)[C@H]2NC(=O)O[C@@]21C [Example 8] | 0.2 (≈ 0.238 µM) | > 100 | 0.78 (≈ 0.926 µM) | 0.05 (≈ 0.0594 µM) | 0.2 (≈ 0.238 µM) | > 100 | 0.2 (≈ 0.238 µM) | > 128 | 0.2 (≈ 0.238 µM) | 0.03 (≈ 0.0356 µM) | 0.2 (≈ 0.238 µM) | > 100 | 0.39 (≈ 0.463 µM) | 0.05 (≈ 0.0594 µM) | 0.2 (≈ 0.238 µM) | 0.5 (≈ 0.594 µM) | > 100 | 0.2 (≈ 0.238 µM) | > 100 | 4 (≈ 4.75 µM) | MIC [17]: 0.02 mg/L (≈ 0.0238 µM); MIC [18]: 0.02 mg/L (≈ 0.0238 µM); MIC [19]: 0.1 mg/L (≈ 0.119 µM); MIC [20]: 0.02 mg/L (≈ 0.0238 µM); MIC [21]: 0.03 mg/L (≈ 0.0356 µM); MIC [22]: 0.2 mg/L (≈ 0.238 µM); MIC [23]: > 100 mg/L |
| CC[C@H]1OC(=O)[C@H](C)C(=O)[C@H](C)[C@@H](O[C@@H]2O[C@H](C)C[C@H](N(C)CC#N)[C@H]2O)[C@](C)(OCC=Cc2cnc3ccccc3c2)C[C@@H](C)C(=O)[C@H](C)[C@H]2NC(=O)O[C@@]21C [Example 9, Compound of Formula (II); R is -CH2CH=CH-(3-quinolyl), R^p is H, W is absent, R^w is H, R^1 is CH2-CN, R^2 is CH3-] | 0.1 | > 100 | 0.2 | 0.2 | 0.1 | > 100 | 0.39 | 128 | 0.1 | 0.03 | 0.05 | 12.5 | 12.5 | 0.02 | 0.78 | 0.5 | > 100 | 0.2 | > 100 | 8 | MIC [17]: 0.01 mg/L; MIC [18]: 0.01 mg/L; MIC [19]: 0.1 mg/L; MIC [20]: 0.01 mg/L; MIC [21]: 0.03 mg/L; MIC [22]: 0.1 mg/L; MIC [23]: > 100 mg/L |
